Experimental data taken from patent US11597738B2 (Mindset Pharma Inc., priority 2020, dated 2023).

Experiments:
[1] = In vivo pharmacokinetics in mice; conditions: male C57BL/6 mice
Experimental: (§1) Male C57BL/6 mice (25-30 g) and male Sprague-Dawley rats (250-325 g) from Charles River Labs were acclimatized for a minimum of 5 days prior to dosing. Body weights were recorded on the day of dosing.
(§2) Animals dosed p.o. were deprived of food overnight and fed ˜2 h following dosing.
(§3) Formulations were administered intravenously (i.v.) via the tail vein or orally (p.o.) by gavage with disposable feeding needles.
(§4) Serial blood samples were collected via tail snip. Terminal blood samples were collected under isoflurane anesthesia by cardiac puncture.
(§5) All blood samples were transferred into K2EDTA tubes on wet ice and centrifuged within 5 min (3200×g for 5 min at 4° C.) to obtain plasma. Plasma was stored at −80° C. until analysis.
(§6) Mouse or Rat Plasma, as Applicable.
(§7) AB Sciex QTRAP 4000 or 6500 MS/MS system equipped with an LC system with a binary pump, a solvent degasser, a thermostatted column compartment and a multiplate autosampler. i. Analysis software: Phoenix® WinNonlin® 8.2 (Pharsight, Certara, Mountainview, Calif.) ii. Analysis methods: non-compartmental analysis, linear up/log down trapezoidal rule iii. PK parameters: C0, t1/2, AUC0-tlast. AUC0-∞, CL, Vss, MRT, tmax(po), Cmax(po), F, as appropriate

[2] = In vivo pharmacokinetics in rats; conditions: male Sprague-Dawley rats
Experimental: as §1, §2, §3, §4, §5, §6, §7

[3] = tested on: head-twitch response (HTR) in male C57BL6 mice; experiment: Mouse head twitch (HTR); assay type: in vivo, C57BL/6J mice; conditions: 0.3-10 mg/kg SC, measured over 1 h
Experimental: Data is expressed as mean+SEM. The induction of head twitches elicited by 5-HT2A receptor agonists is believed to represent a behavioural proxy of their psychedelic effects.
The effect of different doses of exemplary compounds of Formula I were evaluated on head-twitch response (HTR) as a behavior-based model of psychedelic activity.
Male, C57BL/6J mice (body weight range 20-30 g) were dosed with the appropriate dose of test article, and following a 1-minute pre-treatment time, placed in individual observation chambers. Animals were visually assessed for the incidence head twitches continuously over a 1 hr period. Head twitches were defined as a rapid jerk of the head which was not elicited by an external tactile stimulus (Corne and Pickering, Psychopharmacologia, 1967, 11(1): 65-78). Each head twitch was individually counted by a trained observer, and the data expressed as the mean+SEM of 6-10 mice per group. Mice were used in a single experiment only.

[2H]C([2H])([2H])N(C([2H])([2H])[2H])C([2H])([2H])C([2H])([2H])c1c[nH]c2cccc(O)c12 [Compound I-45, 3-(2-(bis(methyl-d3)amino)ethyl-1,1,2,2-d4)-1H-indol-4-ol]
AUC0-inf/Dose ([1]; i.v., 1 mg/kg): 181 ± 30.8 kg·ng·h/mL/mg
AUC0-inf/Dose ([1]; p.o., 10 mg/kg): 79.5 ± 12.1 kg·ng·h/mL/mg
Cmax/Dose ([1]; p.o., 10 mg/kg): 70.4 ± 12.8 kg·ng/mL/mg
AUC0-inf/Dose ([2]; i.v., 0.3 mg/kg): 181 ± 30.8 kg·ng·h/mL/mg
AUC0-inf/Dose ([2]; p.o.): 181 ± 14.6 kg·ng·h/mL/mg
Cmax/Dose ([2]; p.o., 3.0 mg/kg (title; dose row prints 10)): 79.2 ± 24.4 kg·ng/mL/mg
AUC0-inf/Dose ([2]; s.c., 0.3 mg/kg): 120 ± 29.0 kg·ng·h/mL/mg
Cmax/Dose ([2]; s.c., 0.3 mg/kg): 101 ± 40.7 kg·ng/mL/mg
AUC(0-inf) ([2]; rat, plasma, iv, 0.3 mg/kg): 117 ± 11.5 ng·h/mL
C0 ([2]; rat, plasma, iv, 0.3 mg/kg): 76.5 ± 7.49 ng/mL
head twitch frequency compared to vehicle control [3]: dose dependent increase in head twitch frequency
